# Laboratory results taken from patent US20240335569A1, “FIBROBLAST ACTIVATION PROTEIN INHIBITORS AND USE THEREOF” (3 B PHARMACEUTICALS GMBH, priority 2021, published 2024).
# Key:
# [1] = target: FAP-expressing human WI-38 fibroblasts (Homo sapiens (Human), UniProt Q12884); assay: FACS binding assay (competitive, Cy5-labeled 3BP-2935); settings: for pIC50 (FACS): FAP-expressing WI-38 fibroblasts
# Method: In order to determine binding of compounds according to the present invention to FAP-expressing cells, a competitive FACS binding assay was established. […] Cells were diluted in FACS buffer to a final concentration of 100.000 cells per ml and 200 μl of the cell suspension are transferred to a u-shaped non-binding 96-well plate (Greiner). […] Cell were washed twice with FACS buffer (see above) and resuspended in 200 μl FACS buffer. Cells were analyzed in an Attune NxT flow cytometer (Thermo Fisher Scientific). Median fluorescence intensities (Cy5 channel) were calculated by Attune NxT software and plotted against test compound concentrations. Four parameter logistic (4PL) curve fitting and pIC50 calculations were performed using ActivityBase software.
# Human recombinant FAP [2] = target: T1, Human recombinant FAP (Homo sapiens (Human), UniProt Q12884); assay: FAP protease activity assay (human), FRET-based; type: biochemical; settings: for pIC50 (Activity): recombinant human FAP, FRET protease activity
# Method: (§1) In order to determine the inhibitory activity a FRET-based FAP protease activity assay was established.
# Four parameter logistic (4PL) curve fitting and pIC50 calculations were performed using ActivityBase software (IDBS).
# Target sequence in this assay (Q12884 26-760): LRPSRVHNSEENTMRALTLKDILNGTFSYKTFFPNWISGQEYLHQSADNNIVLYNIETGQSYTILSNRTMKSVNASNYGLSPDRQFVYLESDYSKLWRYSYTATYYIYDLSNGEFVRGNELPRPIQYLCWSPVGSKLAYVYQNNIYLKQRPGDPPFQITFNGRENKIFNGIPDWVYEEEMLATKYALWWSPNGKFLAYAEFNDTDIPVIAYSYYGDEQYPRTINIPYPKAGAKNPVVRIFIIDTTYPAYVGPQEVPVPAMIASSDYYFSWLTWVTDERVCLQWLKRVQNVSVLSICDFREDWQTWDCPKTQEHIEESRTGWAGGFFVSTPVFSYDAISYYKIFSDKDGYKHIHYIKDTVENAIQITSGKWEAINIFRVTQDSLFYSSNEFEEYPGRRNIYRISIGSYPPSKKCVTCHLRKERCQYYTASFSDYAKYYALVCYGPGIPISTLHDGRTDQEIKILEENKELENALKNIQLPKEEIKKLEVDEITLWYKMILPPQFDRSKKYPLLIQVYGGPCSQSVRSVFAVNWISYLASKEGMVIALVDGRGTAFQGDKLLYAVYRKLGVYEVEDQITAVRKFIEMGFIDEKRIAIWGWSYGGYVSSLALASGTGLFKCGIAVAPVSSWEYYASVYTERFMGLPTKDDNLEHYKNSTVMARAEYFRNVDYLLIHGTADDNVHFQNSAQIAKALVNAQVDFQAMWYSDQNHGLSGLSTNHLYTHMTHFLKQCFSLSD
# Human recombinant FAP [3] = target: T1, Human recombinant FAP; assay: Surface plasmon resonance assay (Biacore T200, SCK); type: binding; settings: for HL [min] (Biacore): SPR dissociation half-life
# Method: Surface plasmon resonance studies were performed using a Biacore™ T200 SPR system (Cytiva, formerly GE Healthcare). Briefly, polarized light is directed towards a gold-labeled sensor surface, and minimum intensity reflected light is detected. The angle of reflected light changes as molecules bind and dissociate. […] Test compounds are contacted with the loaded surface, and a real-time interaction profile with the FAP ligand is recorded in a sensorgram. In real-time, the association and dissociation of a binding interaction is measured, enabling calculation of association and dissociation rate constants and the corresponding affinity constants. Importantly, a background response is generated due to the difference in the refractive indices of the running and sample buffers, as well as unspecific binding of the test compounds to the flow cell surface. This background is measured and subtracted by running the sample on a control flow cell coated with the same density of capture antibody in the absence of immobilized FAP. Furthermore, baseline drift correction of the binding data is performed, which is caused by slow dissociation of the captured FAP from the immobilized antibody. This drift is measured by injecting running buffer through a flow cell with the antibody and FAP immobilized to the sensor surface.
# Biacore™ CM5 sensor chips were used. […] A 150 μL aliquot was transferred into plastic vials and placed into the sample rack of the Biacore™ T200 instrument. Amine Coupling Kit Reagent solutions were transferred into plastic vials and placed into the sample rack: 90 μL of 0.4 M 1-ethyl-3-(3-dimethylaminopropyl) carbodiimide (EDC), and 90 μL of 0.1 M N-hydroxysuccinimide (NHS). A 130 μL aliquot of 1 M ethanolamine-HCl, pH 8.5, was transferred into plastic vials and placed into the sample rack. The Biacore™ liquid system was set-up as follows: Separate bottles containing distilled water (1 L), Running Buffer (500 mL), as well as an empty bottle for waste were placed onto the buffer tray. A preinstalled program for immobilization was used, with an immobilization level of 7000 RU. Immobilization was performed at 25° C. The immobilization procedure of anti-FAP antibodies was performed, as described in the Table 4.
# Human recombinant FAP was diluted in Running Buffer to a final concentration of 20 μg/mL. A 100 μL aliquot of human FAP-Working-Solution was transferred into plastic vials and placed into a sample rack. A 0.5 mM Compound-Stock-Solution was prepared by dissolving each compound in DMSO. For each test compound, Compound-Stock-Solutions were diluted in Running Buffer (HBST) at 500 nM and further diluted with HBST-DMSO Buffer (0.1% DMSO). SPR binding analyses for binary complexes were performed in SCK mode at 25° C. Following three SCK measurements, a baseline drift was assessed by injecting running buffer through a flow cell, with the antibody and FAP immobilized to the sensor surface.
# For each test compound, SPR raw data in the form of resonance units (RU) were plotted as sensorgrams using the Biacore™ T200 control software. The signal from the blank sensorgram was subtracted from that of the test compound sensorgram (blank corrected). The blank corrected sensorgram was corrected for baseline drift by subtracting the sensorgram of a SCK run without the test compound (running buffer only). The association rate (kon), dissociation rate (koff), dissociation constant (KD), and t1/2 were calculated from Blank-normalized SPR data using the 1:1 Langmuir binding model from the Biacore™ T200 evaluation software. Raw data and fit results were imported as text files in IDBS. The pKD value (negative decadic logarithm of dissociation constant) was calculated in the IDBS excel template.
# Target sequence in this assay (Q12884 whole entry): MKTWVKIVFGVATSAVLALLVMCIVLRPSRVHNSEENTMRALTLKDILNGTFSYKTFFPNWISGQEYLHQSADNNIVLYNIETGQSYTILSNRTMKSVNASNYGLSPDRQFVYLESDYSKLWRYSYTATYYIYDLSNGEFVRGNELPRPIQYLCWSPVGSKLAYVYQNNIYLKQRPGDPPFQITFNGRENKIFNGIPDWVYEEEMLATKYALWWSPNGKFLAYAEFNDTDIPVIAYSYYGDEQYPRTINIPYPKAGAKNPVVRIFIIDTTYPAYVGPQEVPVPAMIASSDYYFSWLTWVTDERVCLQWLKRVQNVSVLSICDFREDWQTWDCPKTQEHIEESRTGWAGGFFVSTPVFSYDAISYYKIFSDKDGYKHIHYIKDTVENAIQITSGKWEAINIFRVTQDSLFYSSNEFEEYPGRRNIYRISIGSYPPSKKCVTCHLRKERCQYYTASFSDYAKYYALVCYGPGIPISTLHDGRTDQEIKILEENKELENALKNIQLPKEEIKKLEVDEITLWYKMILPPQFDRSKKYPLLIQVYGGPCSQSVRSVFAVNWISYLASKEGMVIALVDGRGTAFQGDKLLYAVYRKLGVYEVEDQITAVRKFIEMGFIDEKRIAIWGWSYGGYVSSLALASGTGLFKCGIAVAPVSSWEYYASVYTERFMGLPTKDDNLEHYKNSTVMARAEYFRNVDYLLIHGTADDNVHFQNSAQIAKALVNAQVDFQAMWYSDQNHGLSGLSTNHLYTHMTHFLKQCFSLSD
# Recombinant mouse FAP = Recombinant mouse FAP (Mus musculus (Mouse), UniProt P97321); assay: FAP protease activity assay (mouse), FRET-based; type: biochemical; settings: recombinant mouse FAP, FRET protease activity
# Method: as §1
# Four parameter logistic (4PL) curve fitting and pIC50 calculations were performed using ActivityBase software.
# recombinant human PREP = recombinant human PREP (Homo sapiens (Human), UniProt P48147); assay: PREP protease activity assay; type: biochemical
# Method: (§2) The PREP activity assay was performed using the FACS buffer (PBS including 1% FBS, Sigma-Aldrich, Cat #D8537). […] The DPP4 activity assay was performed in DPP assay buffer (25 mM Tris, pH 8.0). […] Four parameter logistic (4PL) curve fitting and pIC50 calculations were performed using ActivityBase software.
# Recombinant human DPP4 = Recombinant human DPP4 (Homo sapiens (Human), UniProt P27487); assay: DPP4 protease activity assay; type: biochemical
# Method: as §2
# HT-29 cells = assay: Stability in the presence of tumor cells (HT-29), FAP IC50 of supernatants; type: in vitro ADME, human
# Method: Cells were cultured in McCoys's 5A modified medium (Biochrom, #F1015) including 10% fetal bovine serum (FBS), 2 mM L-glutamine, 100 U/ml penicillin and 100 μg/mL streptomycin (growth medium). […] 1 mL of the cell suspension were seeded in 24-well plates and incubated overnight at 37° C. and 5% CO2. The next day, cells were washed twice and growth medium was exchanged against DMEM without phenol red (Biochrom, #F0475) including 2 mM L-glutamine. Test compound was diluted in DMEM without phenol red (Biochrom, #F0475) including 2 mM L-glutamine. 400 μL of a 10 μM solution of the test compound was incubated for 24 hours at 37° C. and 5% CO2 in the presence of cells as well as in control wells (without cells) of the same 24-well plate.
# 25 μL of a 30 μM substrate solution, diluted in assay buffer, was added. All solutions were equilibrated at 37° C. prior to use. […] RFU/sec was calculated by SoftMax Pro software and plotted against test compound concentration. Four parameter logistic (4PL) curve fitting and IC50/pIC50 calculations were performed using GraphPad Prism 9.1 software.
# The stability of exemplary compounds was further assessed in the presence of a variety of human cell lines from different tissue origins. […] Compounds were diluted in DMEM without phenol red (Biochrom, #F0475) including 2 mM L-glutamine. 400 μL of a 10 μM solution of the test compound was incubated for 24 hours at 37° C. and 5% CO2 in the presence of cells as well as in control wells (without cells) of the same 24-well plate. IC50/pIC50 determination of the supernatants was performed as described above.
# [4] = target: HEK-FAP cells (HEK293 cells engineered to express the human FAP) (Homo sapiens (Human), UniProt Q12884); assay: LigandTracer assay with 111In-labeled compounds; type: binding; settings: 111In-labeled compound
# Method: HEK293 cells (human embryonic kidney cells) were engineered to express the human FAP. […] Cell concentrations were adjusted to 3×10^5 mL^−1, and 3.000 μL of the suspension was dispensed into a poly-lysine-coated, clear cell dish (10 cm). Approximately 24 hours after re-seeding, the medium was replaced by assay medium (Ham's medium with 20 mM HEPES) containing 1% FCS. The dish was placed in the LigandTracer® device and a baseline measurement was obtained using the LigandTracer® Control software (version 2.4). […] To determine the dissociation rate (kd) the cells were washed and subsequently incubated with fresh assay medium for several hours.
# FAP-expressing human WI-38 fibroblasts, sequence (Q12884 whole entry): as above
# Recombinant human DPP4, sequence (P27487 whole entry): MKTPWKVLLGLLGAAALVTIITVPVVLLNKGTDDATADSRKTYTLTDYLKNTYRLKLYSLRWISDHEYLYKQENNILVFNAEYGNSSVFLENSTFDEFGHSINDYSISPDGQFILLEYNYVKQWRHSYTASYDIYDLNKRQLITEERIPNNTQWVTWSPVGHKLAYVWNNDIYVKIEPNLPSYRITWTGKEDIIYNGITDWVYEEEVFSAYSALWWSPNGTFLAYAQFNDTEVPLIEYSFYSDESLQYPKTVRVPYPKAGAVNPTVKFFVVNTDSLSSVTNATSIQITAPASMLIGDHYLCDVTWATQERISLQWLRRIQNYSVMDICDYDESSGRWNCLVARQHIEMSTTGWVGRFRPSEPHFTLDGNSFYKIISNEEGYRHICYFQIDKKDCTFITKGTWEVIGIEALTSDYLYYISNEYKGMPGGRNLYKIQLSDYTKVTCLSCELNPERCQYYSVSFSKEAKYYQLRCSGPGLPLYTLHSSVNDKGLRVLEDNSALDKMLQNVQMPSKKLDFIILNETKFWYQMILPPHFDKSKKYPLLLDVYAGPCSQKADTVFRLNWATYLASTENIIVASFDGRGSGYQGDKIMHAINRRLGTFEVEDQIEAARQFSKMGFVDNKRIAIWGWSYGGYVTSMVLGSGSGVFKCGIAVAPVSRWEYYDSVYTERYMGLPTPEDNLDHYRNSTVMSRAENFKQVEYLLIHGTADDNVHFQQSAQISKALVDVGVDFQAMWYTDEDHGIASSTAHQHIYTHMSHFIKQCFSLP
# Recombinant mouse FAP, sequence (P97321 whole entry): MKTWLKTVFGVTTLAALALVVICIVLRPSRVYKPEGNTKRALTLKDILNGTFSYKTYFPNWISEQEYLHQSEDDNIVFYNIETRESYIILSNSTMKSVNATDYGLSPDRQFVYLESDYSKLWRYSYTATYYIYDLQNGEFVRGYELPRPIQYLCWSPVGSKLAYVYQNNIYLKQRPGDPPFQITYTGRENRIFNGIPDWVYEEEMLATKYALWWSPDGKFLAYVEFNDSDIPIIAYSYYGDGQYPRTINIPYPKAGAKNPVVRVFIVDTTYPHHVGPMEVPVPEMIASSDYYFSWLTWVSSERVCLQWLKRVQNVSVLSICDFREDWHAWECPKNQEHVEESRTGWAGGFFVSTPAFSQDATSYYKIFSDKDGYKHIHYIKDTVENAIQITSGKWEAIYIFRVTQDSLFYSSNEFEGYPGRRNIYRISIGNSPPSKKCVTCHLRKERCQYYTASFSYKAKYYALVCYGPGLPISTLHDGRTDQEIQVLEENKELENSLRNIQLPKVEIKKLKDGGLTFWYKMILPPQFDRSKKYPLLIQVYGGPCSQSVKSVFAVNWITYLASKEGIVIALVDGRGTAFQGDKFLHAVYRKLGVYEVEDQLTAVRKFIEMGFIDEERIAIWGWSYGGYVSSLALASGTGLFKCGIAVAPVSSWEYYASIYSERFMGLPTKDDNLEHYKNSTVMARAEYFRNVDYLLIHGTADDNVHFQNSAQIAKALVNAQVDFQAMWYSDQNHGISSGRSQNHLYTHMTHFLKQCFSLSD
# recombinant human PREP, sequence (P48147 whole entry): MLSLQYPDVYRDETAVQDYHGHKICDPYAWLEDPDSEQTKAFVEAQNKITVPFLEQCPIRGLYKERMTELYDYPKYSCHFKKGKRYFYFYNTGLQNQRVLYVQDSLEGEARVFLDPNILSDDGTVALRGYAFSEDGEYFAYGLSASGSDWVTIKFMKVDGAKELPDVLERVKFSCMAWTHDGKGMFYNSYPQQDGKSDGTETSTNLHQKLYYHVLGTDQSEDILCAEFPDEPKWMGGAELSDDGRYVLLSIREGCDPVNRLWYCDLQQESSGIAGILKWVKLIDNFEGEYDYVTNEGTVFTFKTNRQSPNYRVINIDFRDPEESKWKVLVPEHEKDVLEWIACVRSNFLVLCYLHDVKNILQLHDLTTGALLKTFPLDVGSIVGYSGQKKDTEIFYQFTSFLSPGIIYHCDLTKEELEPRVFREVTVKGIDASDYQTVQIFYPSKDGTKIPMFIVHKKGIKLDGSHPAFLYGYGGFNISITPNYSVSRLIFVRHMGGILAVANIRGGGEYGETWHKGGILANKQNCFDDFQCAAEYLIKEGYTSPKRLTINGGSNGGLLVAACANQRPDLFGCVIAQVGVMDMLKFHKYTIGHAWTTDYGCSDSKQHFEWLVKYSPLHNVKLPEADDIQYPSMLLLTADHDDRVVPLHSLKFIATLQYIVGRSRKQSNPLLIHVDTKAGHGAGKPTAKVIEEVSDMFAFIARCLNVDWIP
pIC50 (FACS) [1],pIC50 (Activity) (Human recombinant FAP [2]),pKD (Biacore) (Human recombinant FAP [3]; SPR),HL [min] (Biacore) (Human recombinant FAP [3]),pIC50 (mouseFAP) (Recombinant mouse FAP),pIC50 (PREP) (recombinant human PREP),pIC50 (DPP4) (Recombinant human DPP4),"pIC50 (incubation in cell medium w/o HT-29) (HT-29 cells; 10 μM compound, 24 hours at 37° C. in control wells without cells, supernatant tested on recombinant human FAP)","pIC50 (incubation in the presence of HT-29 cells) (HT-29 cells; 10 μM compound, 24 hours at 37° C. with HT-29 cells, supernatant tested on recombinant human FAP)","Residual activity after incubation with HT-29 cells for 24 hours (%) (HT-29 cells; HT-29 cells, 24 hours)",HL (half-life) [4] [min],SMILES,IC50 ([1]; WI-38 fibroblasts) [nM],"IC50 (Human recombinant FAP [2]; human FAP protease activity, FRET, read-out: pIC50 (Activity) (converted)) [nM]","Kd (Human recombinant FAP [3]; SPR, read-out: pKD (Biacore) (converted)) [nM]",IC50 (recombinant human PREP) [nM],IC50 (Recombinant human DPP4; read-out: pIC50 (DPP4) (converted)) [nM]
9,9.2,>10.5,130,9.1,<6,<6,,,,,CS(=O)(=O)c1ccc(-c2ccc3nccc(C(=O)NCC(=O)N4CC(F)(F)C[C@H]4C#N)c3c2)cc1 [Compound 3BP-3233],,,,,
8.7,9.2,10.5,69,9,<6,<6,,,,,N#C[C@@H]1CC(F)(F)CN1C(=O)CNC(=O)c1ccnc2c1=CC(OCCCN1CCN(C(=O)CN3CCN4CCN5CCN(CC3)CC(=O)[O][In]([O]C(=O)C5)[O]C(=O)C4)CC1)CC=2 (stereo partly drawn) [Compound 3BP-3468],,,,,
7.8,8.4,8.6,0.4,8.4,8.9,<6,,,,,CC(C)(C)c1nnc(C(=O)[C@@H]2CCCN2C(=O)CNC(=O)c2ccnc3ccccc23)o1 [Compound 3BP-3632],,,,,
,,>10.5,>150,,,,8.6,8.6,>95,20 ± 5,O=C(O)CN1CCN(CC(=O)O)CCN(CC(=O)N2CCN(CCCOc3ccc4nccc(C(=O)NCC(=O)N5CCC[C@H]5C(=O)c5nc6ccccc6o5)c4c3)CC2)CCN(CC(=O)O)CC1 [Compound 3BP-4808],,,,,

SMILES,pIC50 (FACS) [1],pIC50 (Activity) (Human recombinant FAP [2]),pKD (Biacore) (Human recombinant FAP [3]; SPR),HL [min] (Biacore) (Human recombinant FAP [3]),pIC50 (mouseFAP) (Recombinant mouse FAP),pIC50 (PREP) (recombinant human PREP),pIC50 (DPP4) (Recombinant human DPP4),"pIC50 (incubation in cell medium w/o HT-29) (HT-29 cells; 10 μM compound, 24 hours at 37° C. in control wells without cells, supernatant tested on recombinant human FAP)","pIC50 (incubation in the presence of HT-29 cells) (HT-29 cells; 10 μM compound, 24 hours at 37° C. with HT-29 cells, supernatant tested on recombinant human FAP)","Residual activity after incubation with HT-29 cells for 24 hours (%) (HT-29 cells; HT-29 cells, 24 hours)",HL (half-life) [4] [min],IC50 ([1]; WI-38 fibroblasts) [nM],"IC50 (Human recombinant FAP [2]; human FAP protease activity, FRET, read-out: pIC50 (Activity) (converted)) [nM]","Kd (Human recombinant FAP [3]; SPR, read-out: pKD (Biacore) (converted)) [nM]",IC50 (recombinant human PREP) [nM],IC50 (Recombinant human DPP4; read-out: pIC50 (DPP4) (converted)) [nM]
"N#C[C@@H]1CCCN1C(=O)CNC(=O)c1ccnc2ccc(-c3ccc(C(=O)NCCCN(CC(=O)O)C(=O)CN4CCN(CC(=O)O)CCN(CC(=O)O)CCN(CC(=O)O)CC4)cc3)cc12 [Compound 3BP-3954, (S)-2,2′,2″-(10-(2-((carboxymethyl)(3-(4-(4-(2-(2-cyanopyrrolidin-1-yl)-2-oxoethylcarbamoyl)quinolin-6-yl)benzamido)propyl)amino)-2-oxoethyl)-1,4,7,10-tetraazacyclododecane-1,4,7-triyl)triacetic Acid]",,,,>150,,,,,,,,3.98,1.26,< 0.0316,> 1000,> 1000
